According to patent publication US8722731B2, “Furanyl compounds and the use thereof” (NovoMedix, LLC, priority 2010, dated 2014):
Where two headings read alike, the source gives them in different places.

Legend:
RT-4 = assay: IC50 cell-based assay, adherent cells, RT-4; settings: Homo sapiens, Bladder, papilloma, 72 hours, read-out: IC50 of Compounds in Adherent Cell Types
Procedure: (§1) In one embodiment, the IC50s of the compounds provided herein were determined in cell-based assays using adherent cells. In one embodiment, the activity of the compounds provided herein were determined in a cell-based assay using the triple negative breast cancer cell line MDA-MB-468. In one embodiment, the adherent cells used in the cell-based assays may be a cell type selected from Table 1. In one embodiment, the cell-based assay may be carried out as provided herein. On day 0, cells were seeded at 20,000 cells per well in 100 µL of media into individual wells of a 96-well tissue culture plate. The next day, compounds were diluted to twice the desired final concentration and added in 100 µL of media for a final volume of 200 μL. Standard solutions for each compound were prepared at 1000× concentration in DMSO. The highest concentration was 30 mM. Serial 1:1 dilutions were made from there for a 6- or 9-point curve (e.g., 30 mM, 15 mM, 7.5 mM, etc). Compounds were then diluted 1:500 in media, and 100 µL of the resulting solution was added to each well for a final dilution of 1:1000. Each concentration of compound was tested in triplicate. Cells were incubated at 37° C. with 5% CO2. After 72 hours, 20 μL of CellTiter 96 Aqueous One Solution Cell Proliferation Assay (Promega) was added to each well. Cells were placed back in the incubator, and the absorbance at 490 nm was read after 2-3 hours. The concentration of compound that decreased the number of metabolically active cells by 50% was determined and reported as the IC50. “Percent Viability” was determined by subtracting the average background value (media only) and expressed as a ratio to the average value obtained from cells treated with only DMSO.

A549 = assay: IC50 cell-based assay, adherent cells, A549; settings: Homo sapiens, Lung, NSCLC, 72 hours, read-out: IC50 of Compounds in Adherent Cell Types
Procedure: as §1

Panc-1 = assay: IC50 cell-based assay, adherent cells, Panc-1; settings: Homo sapiens, Pancreas, epitheloid carcinoma, 72 hours, read-out: IC50 of Compounds in Adherent Cell Types
Procedure: as §1

OVCAR-3 = assay: IC50 cell-based assay, adherent cells, OVCAR-3; settings: Homo sapiens, Ovarian, adenocarcinoma, 72 hours, read-out: IC50 of Compounds in Adherent Cell Types
Procedure: as §1

Z138, JeKo-1 = assay: IC50 cell-based assay, suspension cells, Z138, JeKo-1; settings: Lymphoma, Mantle cell, read-out: IC50 of Compounds in Suspension Cell Types
Procedure: as §1
(§2) In one embodiment, the IC50s of the compounds provided herein were determined in cell-based assays using suspension cells. In one embodiment, the activity of the compounds provided herein were determined in a cell-based assay using the JeKo-1 cell line (mantle cell lymphoma) or the Pfeiffer cell line (diffuse large B-cell lymphoma). In one embodiment, the suspension cells used in the cell-based assays may be a cell type selected from Table 2. Assays with suspension cells were similar except that 40,000-60,000 cells were added to each well and compounds were added immediately after cell plating.

FaDu = assay: IC50 cell-based assay, adherent cells, FaDu; settings: Homo sapiens, Pharynx, squamous cell, 72 hours, read-out: IC50 of Compounds in Adherent Cell Types
Procedure: as §1

A431 = assay: IC50 cell-based assay, adherent cells, A431; settings: Homo sapiens, A-431, Skin, epidermoid carcinoma, 72 hours, read-out: IC50 of Compounds in Adherent Cell Types
Procedure: as §1

Caki-1 = assay: IC50 cell-based assay, adherent cells, Caki-1; settings: Homo sapiens, Kidney, clear cell carc., skin met, 72 hours, read-out: IC50 of Compounds in Adherent Cell Types
Procedure: as §1

HT-29 = assay: IC50 cell-based assay, adherent cells, HT-29; settings: Homo sapiens, Colorectal, adenocarcinoma, 72 hours, read-out: IC50 of Compounds in Adherent Cell Types
Procedure: as §1

MDA-MB-231 = assay: IC50 cell-based assay, adherent cells, MDA-MB-231; settings: Homo sapiens, Breast, triple neg, 72 hours, read-out: IC50 of Compounds in Adherent Cell Types
Procedure: as §1

[1] = test system: triple negative breast cancer cell line MDA-MB-468; assay: IC50 cell-based assay, adherent cells, MDA-MB-468; settings: Homo sapiens
Procedure: as §1
The IC50s of the compounds provided herein were determined in cell-based assay using triple negative breast cancer cell line MDA-MB-468.

U87-MG = assay: IC50 cell-based assay, adherent cells, U87-MG; settings: Homo sapiens, U-87 MG, Brain, glioblastoma, 72 hours, read-out: IC50 of Compounds in Adherent Cell Types
Procedure: as §1

MHH-CALL-4 = assay: IC50 cell-based assay, suspension cells, MHH-CALL-4; settings: MHHCALL4, Leukemia, B-ALL (CRLF2 Hi), read-out: IC50 of Compounds in Suspension Cell Types
Procedure: as §1, §2

Nalm-6 = assay: IC50 cell-based assay, suspension cells, Nalm-6; settings: Homo sapiens, Leukemia, B-ALL, read-out: IC50 of Compounds in Suspension Cell Types
Procedure: as §1, §2

HL-60 = assay: IC50 cell-based assay, suspension cells, HL-60; settings: Homo sapiens, Leukemia, AML, read-out: IC50 of Compounds in Suspension Cell Types
Procedure: as §1, §2

H-460 = assay: IC50 cell-based assay, adherent cells, H-460; settings: Homo sapiens, NCI-H460, Lung, large cell carcinoma, 72 hours, read-out: IC50 of Compounds in Adherent Cell Types
Procedure: as §1

AsPC-1 = assay: IC50 cell-based assay, adherent cells, AsPC-1; settings: Homo sapiens, ASPC1, Pancreas, carcinoma, 72 hours, read-out: IC50 of Compounds in Adherent Cell Types
Procedure: as §1

Nalm-6-VR = assay: IC50 cell-based assay, suspension cells, Nalm-6-VR; settings: Leukemia, B-ALL, Vincristine resistant, read-out: IC50 of Compounds in Suspension Cell Types
Procedure: as §1, §2

SupB15 = assay: IC50 cell-based assay, suspension cells, SupB15; settings: Homo sapiens, SUP-B15, Leukemia, B-ALL (Philadelphia chromosome+), read-out: IC50 of Compounds in Suspension Cell Types
Procedure: as §1, §2

1937 = assay: IC50 cell-based assay, adherent cells, 1937; settings: Breast, triple neg, 72 hours, read-out: IC50 of Compounds in Adherent Cell Types
Procedure: as §1

Hep-G2 = assay: IC50 cell-based assay, adherent cells, Hep-G2; settings: Homo sapiens, HepG2, Liver, hepatocellular carcinoma, 72 hours, read-out: IC50 of Compounds in Adherent Cell Types
Procedure: as §1

Pfeiffer = assay: IC50 cell-based assay, suspension cells, Pfeiffer; settings: Homo sapiens, Lymphoma, Diffuse large b-cell, read-out: IC50 of Compounds in Suspension Cell Types
Procedure: as §1, §2

SKBR-3 = assay: IC50 cell-based assay, adherent cells, SKBR-3; settings: Homo sapiens, SK-BR-3, Breast, ER−, 72 hours, read-out: IC50 of Compounds in Adherent Cell Types
Procedure: as §1

SK-MEL-28 = assay: IC50 cell-based assay, adherent cells, SK-MEL-28; settings: Homo sapiens, Melanoma, 72 hours, read-out: IC50 of Compounds in Adherent Cell Types
Procedure: as §1

MCF-7 = assay: IC50 cell-based assay, adherent cells, MCF-7; settings: Homo sapiens, MCF7, Breast, ER+, 72 hours, read-out: IC50 of Compounds in Adherent Cell Types
Procedure: as §1

Kg1a = assay: IC50 cell-based assay, suspension cells, Kg1a; settings: Homo sapiens, KG-1a, Leukemia, AML, read-out: IC50 of Compounds in Suspension Cell Types
Procedure: as §1, §2

MDA-MB-361 = assay: IC50 cell-based assay, adherent cells, MDA-MB-361; settings: Homo sapiens, Breast, Brain met Her2-neu + ER +, 72 hours, read-out: IC50 of Compounds in Adherent Cell Types
Procedure: as §1

[2] = MDA-MB-468, Breast, triple neg, 72 hours, Table 1, read-out: IC50 of Compounds in Adherent Cell Types
[3] = MDA-MB-468 cells, Table 3, read-out: IC50 of Compounds in MDA-MB-468 Cells

SMILES | IC50 (RT-4) [µM] | IC50 (A549) [µM] | IC50 (Panc-1) [µM] | IC50 (OVCAR-3) [µM] | IC50 (Z138, JeKo-1) [µM] | IC50 (FaDu) [µM] | IC50 (A431) [µM] | IC50 (MDA-MB-231) [µM] | IC50 [1, 2] [µM] | IC50 [1, 3] [µM] | IC50 (MHH-CALL-4) [µM] | IC50 (Nalm-6) [µM] | IC50 (HL-60) [µM] | IC50 (SupB15) [µM] | IC50 1937 [µM] | IC50 (Pfeiffer) [µM] | IC50 (SKBR-3) [µM] | IC50 (MCF-7) [µM] | IC50 (Kg1a) [µM] | IC50 (MDA-MB-361) [µM] | also measured
O=C(Nc1cc(F)cc(C(F)(F)F)c1)c1cc(-c2ccccc2)oc1C(F)(F)F [Compound 6, 5-Phenyl-2-trifluoromethyl-furan-3-carboxylic acid (3-fluoro-5-trifluoromethyl-phenyl)-amide] | > 20 | 5 to 10 | 5 to 10 | 5 to 10 | 5 to 10 | 5 to 10 | 5 to 10 | 5 to 10 | < 5 | 4 | 10 to 20 | < 5 | 5 to 10 | 5 to 10 | 5 to 10 | 10 to 20 | < 5 | 5 to 10 | 10 to 20 | 10 to 20 | IC50 (Caki-1): 5 to 10 µM; IC50 (HT-29): > 20 µM; IC50 (U87-MG): 10 to 20 µM; IC50 (H-460): > 20 µM; IC50 (AsPC-1): 5 to 10 µM; IC50 (Nalm-6-VR): < 5 µM; IC50 (Hep-G2): > 20 µM; IC50 (SK-MEL-28): 5 to 10 µM
Cc1oc(-c2ccccc2)cc1C(=O)Nc1cc(C(F)(F)F)cc(C(F)(F)F)c1 [Compound 4, 2-Methyl-5-phenyl-furan-3-carboxylic acid (3,5-bis-trifluoromethyl-phenyl)-amide] |  |  | > 20 |  | > 20 |  |  | > 20 | 10 to 20 | > 30 | > 20 | > 20 | > 20 | > 20 | > 20 | > 20 | > 20 | > 20 | > 20 | > 20 | 

The next lines start with results.

IC50 (RT-4) [µM] | IC50 (A549) [µM] | IC50 (Panc-1) [µM] | IC50 (OVCAR-3) [µM] | IC50 (Z138, JeKo-1) [µM] | IC50 (FaDu) [µM] | IC50 (A431) [µM] | IC50 (MDA-MB-231) [µM] | IC50 [1, 2] [µM] | IC50 [1, 3] [µM] | IC50 (MHH-CALL-4) [µM] | IC50 (Nalm-6) [µM] | IC50 (HL-60) [µM] | IC50 (SupB15) [µM] | IC50 1937 [µM] | IC50 (Pfeiffer) [µM] | IC50 (SKBR-3) [µM] | IC50 (MCF-7) [µM] | IC50 (Kg1a) [µM] | IC50 (MDA-MB-361) [µM] | SMILES | also measured
> 20 | < 5 | 5 to 10 | < 5 | < 5 | < 5 | 5 to 10 | 5 to 10 | < 5 | 1.5 | < 5 | 5 to 10 | < 5 | < 5 | < 5 | < 5 | < 5 | 5 to 10 | < 5 | < 5 | O=C(Nc1cc(C(F)(F)F)cc(C(F)(F)F)c1)c1cc(-c2ccc(Br)cc2)oc1C(F)(F)F [Compound 3, 5-(4-Bromophenyl)-N-(3,5-bistrifluoromethylphenyl)-2-trifluoromethylfuran-3-carboxamide] | IC50 (Caki-1): 5 to 10 µM; IC50 (HT-29): 10 to 20 µM; IC50 (U87-MG): 5 to 10 µM; IC50 (H-460): 10 to 20 µM; IC50 (AsPC-1): 5 to 10 µM; IC50 (Nalm-6-VR): < 5 µM; IC50 (Hep-G2): 5 to 10 µM; IC50 (SK-MEL-28): 5 to 10 µM
> 20 | 5 to 10 | < 5 | 5 to 10 | < 5 | 5 to 10 | > 20 | 5 to 10 | < 5 | 4 | 5 to 10 | < 5 | < 5 | < 5 | 5 to 10 | 5 to 10 | < 5 | < 5 | 5 to 10 | 10 to 20 | O=C(Nc1cc(F)cc(C(F)(F)F)c1)c1cc(-c2ccc(Cl)cc2)oc1C(F)(F)F [Compound 5, 5-(4-Chloro-phenyl)-2-trifluoromethyl-furan-3-carboxylic acid (3-fluoro-5-trifluoromethyl-phenyl)-amide] | IC50 (Caki-1): 5 to 10 µM; IC50 (HT-29): > 20 µM; IC50 (U87-MG): 10 to 20 µM; IC50 (H-460): > 20 µM; IC50 (AsPC-1): 5 to 10 µM; IC50 (Nalm-6-VR): < 5 µM; IC50 (Hep-G2): 10 to 20 µM; IC50 (SK-MEL-28): 5 to 10 µM
 |  |  |  |  |  |  |  | < 5 | 2 |  | < 5 |  |  |  |  |  |  |  |  | COc1ccc(-c2cc(C(=O)Nc3cc(C(F)(F)F)cc(C(F)(F)F)c3)c(C(F)(F)F)o2)cc1 [Compound 8, 5-(4-Methoxy-phenyl)-2-trifluoromethyl-furan-3-carboxylic acid (3,5-bis-trifluoromethyl-phenyl)-amide] | 
> 20 | > 20 | > 20 | 5 to 10 | 5 to 10 | 5 to 10 | 10 to 20 | 10 to 20 | < 5 | 5 | 10 to 20 | 5 to 10 | 5 to 10 | 5 to 10 | 5 to 10 | 10 to 20 | 5 to 10 | 5 to 10 | 10 to 20 | > 20 | O=C(Nc1cc(F)cc(C(F)(F)F)c1)c1cc(-c2ccc(Br)cc2)oc1C(F)(F)F [Compound 7, 5-(4-Bromo-phenyl)-2-trifluoromethyl-furan-3-carboxylic acid (3-fluoro-5-trifluoromethyl-phenyl)-amide] | IC50 (HT-29): > 20 µM; IC50 (U87-MG): > 20 µM; IC50 (H-460): > 20 µM; IC50 (AsPC-1): 10 to 20 µM; IC50 (Nalm-6-VR): 10 to 20 µM; IC50 (Hep-G2): 10 to 20 µM; IC50 (SK-MEL-28): 10 to 20 µM
